In patent publication US20140303092A1 (CHIMERIX, INC., priority 2011, published 2014):
Marks after values point to notes of the source that are not given here.

Experiments:
[1] = human, in vivo
Text: ESRD patients not on dialysis have no ability to eliminate the metabolite CDV. As such, specific labeling for ESRD patients not currently on dialysis may not be sought. Furthermore, such subjects are/may be excluded from future studies with HDP-CDV.

[2] = Study HDP-CDV-350: safety, adverse events and disposition; assay type: in vivo, human (allogeneic HCT recipients)
Protocol: Subjects underwent extensive safety monitoring, including routine safety laboratory assessments, physical examination, and vital sign measurements at regular intervals. In addition, subjects were monitored for viral DNA burden in plasma (DNAemia) and other affected compartments (e.g., urine, stool, CSF, etc.). Assessments were performed weekly for the first month, every 1 or 2 weeks for the next 2 months, and monthly thereafter for as long as treatment was continued. Subjects were monitored for adverse events (AEs) and for selected concomitant medication throughout the entire study, including the 1 month posttreatment follow-up period.
Given that subjects had to have a serious or life-threatening disease and/or to have failed other available treatment options in order to qualify for this study, there was an expected high frequency of AEs in the study population overall. With the exception of diarrhea, with or without associated GI signs and symptoms, the vast majority of AEs were attributed to the underlying conditions of the subjects and not to HDP-CDV administration.

HHV-6(B) = assay: In vitro antiviral activity in cell culture, HHV-6(B); assay type: cell-based, human herpesvirus 6; conditions: Human betaherpesvirus 6, B-cell
[3] = 16 subjects, 100 mg BIW adults or 2 mg/kg BIW pediatrics

Structure (SMILES): CCCCCCCCCCCCCCCCOCCCOP(=O)(O)COC(CO)Cn1ccc(N)nc1=O (stereo not shown) [HDP-CDV]
- need for dosage adjustment in renal impairment [1]: no adjustment of HDP-CDV dosage is required
- Reason for Premature Study Discontinuation: Death [2, 3]: 7 (44%)
- Reasons for Premature HDP-CDV Treatment Discontinuation: Death [2, 3]: 4 (25%)
- Reasons for Premature HDP-CDV Treatment Discontinuation: Other ([2]; 16 subjects, both completed the maximum 6 months treatment without resolution of CMV infection): 2 (13%)^i
- Treatment-related Adverse Events: Colitis ([2]; human, in vivo): 1 (6%) No. of Subjects (%)
- Treatment-related Adverse Events: Decreased appetite ([2]; human, in vivo): 1 (6%) No. of Subjects (%)
- Treatment-related Adverse Events: Diarrhea ([2]; human, in vivo): 12 (75%) No. of Subjects (%)
- Treatment-related Adverse Events: Flatulence ([2]; human, in vivo): 1 (6%) No. of Subjects (%)
- Treatment-related Adverse Events: Liver function tests abnormal ([2]; human, in vivo): 3 (19%) No. of Subjects (%)
- Treatment-related Adverse Events: Nausea ([2]; human, in vivo): 2 (13%) No. of Subjects (%)
- Treatment-related Adverse Events: Neutropenia ([2]; human, in vivo): 1 (6%) No. of Subjects (%)
- tolerability ([2]; in vivo): generally well-tolerated
- EC50 (HHV-6(B)): 7 nM
